# According to ChEMBL document CHEMBL4118193, “1,2,3,4,6-Penta-O-galloyl-β-d-glucose suppresses colon cancer through induction of tumor suppressor” (Bioorg Med Chem Lett, 2018):
# Calls of active or inactive are those of the source. The rule behind the calls is not given here.
# How the values were obtained:
# [1] = test system: HCT-116; experiment: Induction of apoptosis in human HCT116 cells assessed as caspase-3 protein level at 1 uM after 48 hrs by Western blot method relative to beta-actin; assay type: functional
# [2] = test system: HCT-116; experiment: Induction of apoptosis in human HCT116 cells assessed as Bcl-2 protein level at 5 uM after 48 hrs by Western blot method relative to beta-actin; assay type: functional
# [3] = test system: HCT-116; experiment: Induction of apoptosis in human HCT116 cells assessed as caspase-3 protein level at 2.5 uM after 48 hrs by Western blot method relative to beta-actin; assay type: functional
# [4] = test system: HT-29; experiment: Induction of apoptosis in human HT-29 cells assessed as CDK2 protein level at 10 uM after 48 hrs by Western blot method relative to beta-actin; assay type: functional
# [5] = test system: HT-29; experiment: Cell cycle arrest in human HT-29 cells assessed as accumulation at S phase at 1 uM after 48 hrs (reference value: 9.7%); assay type: functional
# [6] = test system: HCT-116; experiment: Induction of apoptosis in human HCT116 cells assessed as cleaved caspase-3 protein level at 5 uM after 48 hrs by Western blot method relative to caspase-3; assay type: functional
# [7] = test system: HCT-116; experiment: Induction of apoptosis in human HCT116 cells assessed as increase in caspase-3/7 activity at 1 to 10 uM measured after 48 hrs by Caspase-Glo 3/7 assay; assay type: functional, cell-based
# [8] = test system: HCT-116; experiment: Induction of apoptosis in human HCT116 cells assessed as caspase-3 protein level at 10 uM after 48 hrs by Western blot method relative to beta-actin; assay type: functional
# [9] = test system: HCT-116; experiment: Cell cycle arrest in human HCT116 cells assessed as accumulation at G0/G1 phase at 2.5 uM after 48 hrs (reference value: 38.5%); assay type: functional
# [10] = test system: HCT-116; experiment: Antiproliferative activity against human HCT116 cells at 1 to 10 uM after 48 hrs by CytoTox-96 non-radioactive assay; assay type: functional, cell-based
# [11] = test system: HT-29; experiment: Induction of apoptosis in human HT-29 cells after 48 hrs by Annexin-V and dead cell assay; assay type: functional, cell-based
# [12] = test system: HT-29; experiment: Cell cycle arrest in human HT-29 cells assessed as accumulation at S phase at 2.5 uM after 48 hrs (reference value: 9.7%); assay type: functional
# [13] = test system: HCT-116; experiment: Induction of apoptosis in human HCT116 cells assessed as necrotic cells at 10 uM after 48 hrs by Annexin-V and dead cell assay (reference value: 0.10%); assay type: functional
# [14] = test system: HT-29; experiment: Induction of apoptosis in human HT-29 cells assessed as caspase-3 protein level at 1 uM after 48 hrs by Western blot method relative to beta-actin; assay type: functional
# [15] = test system: HCT-116; experiment: Induction of apoptosis in human HCT116 cells assessed as DNA fragmentation at 1 to 10 uM after 48 hrs by ELISA; assay type: functional, cell-based
# [16] = test system: HCT-116; experiment: Induction of apoptosis in human HCT116 cells assessed as CDK2 protein level at 10 uM after 48 hrs by Western blot method relative to beta-actin; assay type: functional
# [17] = test system: HT-29; experiment: Induction of apoptosis in human HT-29 cells assessed as p21 protein level at 10 uM after 48 hrs by Western blot method relative to beta-actin; assay type: functional
# [18] = test system: HT-29; experiment: Induction of apoptosis in human HT-29 cells assessed as in p53 protein level at 2.5 uM after 48 hrs by Western blot method relative to beta-actin; assay type: functional
# [19] = test system: HCT-116; experiment: Induction of apoptosis in human HCT116 cells assessed as necrotic cells at 5 uM after 48 hrs by Annexin-V and dead cell assay (reference value: 0.10%); assay type: functional
# [20] = test system: HCT-116; experiment: Induction of apoptosis in human HCT116 cells assessed as cyclin E protein level at 5 uM after 48 hrs by Western blot method relative to beta-actin; assay type: functional
# [21] = test system: HCT-116; experiment: Induction of apoptosis in human HCT116 cells assessed as late apoptotic cells at 1 uM after 48 hrs by Annexin-V and dead cell assay (reference value: 1.45%); assay type: functional
# [22] = test system: HCT-116; experiment: Induction of apoptosis in human HCT116 cells assessed as Bcl-2 protein level at 10 uM after 48 hrs by Western blot method relative to beta-actin; assay type: functional
# [23] = test system: HT-29; experiment: Cell cycle arrest in human HT-29 cells assessed as accumulation at G0/G1 phase at 10 uM after 48 hrs (reference value: 53.9%); assay type: functional
# [24] = test system: HCT-116; experiment: Induction of apoptosis in human HCT116 cells assessed as cleaved caspase-3 protein level at 1 uM after 48 hrs by Western blot method relative to caspase-3; assay type: functional
# [25] = test system: HCT-116; experiment: Induction of apoptosis in human HCT116 cells assessed as necrotic cells at 2.5 uM after 48 hrs by Annexin-V and dead cell assay (reference value: 0.10%); assay type: functional
# [26] = test system: HCT-116; experiment: Cell cycle arrest in human HCT116 cells assessed as accumulation at G2/M phase at 2.5 uM after 48 hrs (reference value: 21.5%); assay type: functional
# [27] = test system: HCT-116; experiment: Induction of apoptosis in human HCT116 cells assessed as cleaved caspase-3 protein level at 2.5 uM after 48 hrs by Western blot method relative to caspase-3; assay type: functional
# [28] = test system: HCT-116; experiment: Induction of apoptosis in human HCT116 cells assessed as necrotic cells at 1 uM after 48 hrs by Annexin-V and dead cell assay (reference value: 0.10%); assay type: functional
# [29] = test system: HCT-116; experiment: Cell cycle arrest in human HCT116 cells assessed as accumulation at S phase at 2.5 uM after 48 hrs (reference value: 10.9%); assay type: functional
# [30] = test system: HCT-116; experiment: Induction of apoptosis in human HCT116 cells assessed as cyclin E protein level at 1 uM after 48 hrs by Western blot method relative to beta-actin; assay type: functional
# [31] = test system: HCT-116; experiment: Induction of apoptosis in human HCT116 cells assessed as CDK2 protein level at 2.5 uM after 48 hrs by Western blot method relative to beta-actin; assay type: functional
# [32] = test system: HT-29; experiment: Induction of apoptosis in human HT-29 cells assessed as CDK2 protein level at 1 uM after 48 hrs by Western blot method relative to beta-actin; assay type: functional
# [33] = test system: HCT-116; experiment: Induction of apoptosis in human HCT116 cells assessed as cleaved caspase-3 protein level at 10 uM after 48 hrs by Western blot method relative to caspase-3; assay type: functional
# [34] = test system: HCT-116; experiment: Induction of apoptosis in human HCT116 cells assessed as late apoptotic cells at 5 uM after 48 hrs by Annexin-V and dead cell assay (reference value: 1.45%); assay type: functional
# [35] = test system: HCT-116; experiment: Cell cycle arrest in human HCT116 cells assessed as accumulation at G0/G1 phase at 5 uM after 48 hrs (reference value: 38.5%); assay type: functional
# [36] = test system: CCD-18Co; experiment: Antiproliferative activity against human CCD-18Co cells at 1 to 10 uM after 48 hrs by CytoTox-96 non-radioactive assay; assay type: cell-based
# [37] = test system: HT-29; experiment: Cytotoxicity against human HT-29 cells assessed as reduction in cell viability by MTT assay; assay type: functional, cell-based
# [38] = test system: HCT-116; experiment: Induction of apoptosis in human HCT116 cells assessed as in p53 protein level at 5 uM after 48 hrs by Western blot method relative to beta-actin; assay type: functional
# [39] = test system: HT-29; experiment: Induction of apoptosis in human HT-29 cells assessed as CDK2 protein level at 5 uM after 48 hrs by Western blot method relative to beta-actin; assay type: functional
# [40] = test system: HCT-116; experiment: Cell cycle arrest in human HCT116 cells assessed as accumulation at G2/M phase at 1 uM after 48 hrs (reference value: 21.5%); assay type: functional
# [41] = test system: HCT-116; experiment: Cytotoxicity against human HCT116 cells assessed as reduction in cell viability by MTT assay; assay type: functional, cell-based
smiles,measurement,setting,value
O=C(OC[C@H]1O[C@@H](OC(=O)c2cc(O)c(O)c(O)c2)[C@H](OC(=O)c2cc(O)c(O)c(O)c2)[C@@H](OC(=O)c2cc(O)c(O)c(O)c2)[C@@H]1OC(=O)c1cc(O)c(O)c(O)c1)c1cc(O)c(O)c(O)c1 [PENTAGALLOYL GLUCOSE],fold change (FC),[1],29.6
same,fold change (FC),[2],1.2
same,fold change (FC),[3],109.9
same,fold change (FC),[4],0.8
same,Activity,[5],12.7%
same,fold change (FC),[6],2
same,Activity,[7],Active
same,fold change (FC),[8],488.4
same,Activity,[9],34%
same,Activity,[10],Active
same,Activity,[11],Dose-dependent effect
same,Activity,[12],13.4%
same,Activity,[13],0.25%
same,fold change (FC),[14],1.6
same,Activity,[15],Active
same,fold change (FC),[16],0.3
same,fold change (FC),[17],0.1
same,fold change (FC),[18],4.4
same,Activity,[19],0.45%
same,fold change (FC),[20],0.6
same,Activity,[21],0.65%
same,fold change (FC),[22],0.7
same,Activity,[23],37.3%
same,fold change (FC),[24],1
same,Activity,[25],0.1%
same,Activity,[26],20.5%
same,fold change (FC),[27],1.8
same,Activity,[28],0.1%
same,Activity,[29],9%
same,fold change (FC),[30],1.8
same,fold change (FC),[31],0.8
same,fold change (FC),[32],0.9
same,fold change (FC),[33],1.7
same,Activity,[34],4.35%
same,Activity,[35],17.9%
same,Activity,[36],Non-Toxic
same,IC50,[37],4.46 µM
same,fold change (FC),[38],4.9
same,fold change (FC),[39],0.4
same,Activity,[40],18.1%
same,IC50,[41],1610 nM
